Measurements as given in patent US10202389B2, “Pyrazolopyrimidinyl inhibitors of ubiquitin-activating enzyme” (Millennium Pharmaceuticals, Inc., priority 2012, dated 2019).

target: recombinant human UAE (Homo sapiens (Human), UniProt P22314); test: Ubiquitin Activating Enzyme (UAE) HTRF Assay; conditions: read-out: % inhibition @0.111 μM
Sequence (P22314 whole entry): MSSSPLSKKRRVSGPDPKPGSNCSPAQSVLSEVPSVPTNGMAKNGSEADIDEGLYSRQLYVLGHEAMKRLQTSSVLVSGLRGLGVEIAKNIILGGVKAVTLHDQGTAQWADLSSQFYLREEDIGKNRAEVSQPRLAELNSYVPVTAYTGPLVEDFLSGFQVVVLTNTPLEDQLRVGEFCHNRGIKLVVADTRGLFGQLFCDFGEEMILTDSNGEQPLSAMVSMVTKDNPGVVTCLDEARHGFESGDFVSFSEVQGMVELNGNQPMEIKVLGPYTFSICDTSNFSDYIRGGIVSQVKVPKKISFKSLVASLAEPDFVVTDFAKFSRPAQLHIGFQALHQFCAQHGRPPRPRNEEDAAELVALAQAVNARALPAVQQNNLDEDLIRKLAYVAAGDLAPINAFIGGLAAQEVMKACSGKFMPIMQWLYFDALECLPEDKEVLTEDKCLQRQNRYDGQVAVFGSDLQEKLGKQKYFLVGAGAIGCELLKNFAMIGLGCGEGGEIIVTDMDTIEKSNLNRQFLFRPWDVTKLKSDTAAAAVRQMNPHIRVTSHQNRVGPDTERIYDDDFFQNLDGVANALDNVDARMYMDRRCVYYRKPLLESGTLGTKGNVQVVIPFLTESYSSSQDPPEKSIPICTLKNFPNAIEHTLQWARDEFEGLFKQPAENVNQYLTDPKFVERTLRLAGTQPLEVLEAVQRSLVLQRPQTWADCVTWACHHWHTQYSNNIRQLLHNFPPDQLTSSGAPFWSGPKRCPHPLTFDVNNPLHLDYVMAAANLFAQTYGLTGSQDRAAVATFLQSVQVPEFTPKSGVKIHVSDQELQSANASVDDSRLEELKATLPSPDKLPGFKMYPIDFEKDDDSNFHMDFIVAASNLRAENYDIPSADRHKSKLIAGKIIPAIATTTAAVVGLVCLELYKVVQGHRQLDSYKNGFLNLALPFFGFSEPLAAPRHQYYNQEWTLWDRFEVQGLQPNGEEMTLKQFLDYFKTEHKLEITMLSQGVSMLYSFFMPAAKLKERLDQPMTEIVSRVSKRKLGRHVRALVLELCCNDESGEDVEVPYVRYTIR
Protocol: After incubation for 120 minutes, quantification of the FRET is performed on the Pherostar (BMG).
For compounds whose values are marked with an asterisk (*), mouse UAE was used. For all other compounds, human UAE was used.

| Structure (SMILES) | inhibition at 0.111 µM |
| --- | --- |
| CCc1ccc2sc(-c3cc4nccc(N[C@@H]5C[C@H](COS(N)(=O)=O)[C@@H](O)[C@H]5O)n4n3)cc2c1 (relative stereo) [Compound I-095, (rac)-((1R,2R,3S,4R)-4-(2-(5-ethylbenzo[b]thiophen-2-yl)pyrazolo[1,5-a]pyrimidin-7-ylamino)-2,3-dihydroxycyclopentyl)methyl rel-sulfamate] | 70% |
| NS(=O)(=O)OC[C@H]1C[C@@H](Nc2ccnc3cc(-c4cncc5ccccc45)nn23)[C@H](O)[C@@H]1O (relative stereo) [Compound I-018, (rac)-((1R,2R,3S,4R)-2,3-dihydroxy-4-(2-(isoquinolin-4-yl)pyrazolo[1,5-a]pyrimidin-7-ylamino)cyclopentyl)methyl rel-sulfamate] | 100% |
| CC1(C)CCc2ccc(-c3cc4nccc(N[C@@H]5C[C@H](COS(N)(=O)=O)[C@@H](O)[C@H]5O)n4n3)cc21 (relative stereo) [Compound I-041, (rac)-((1R,2R,3S,4R)-4-(2-(3,3-dimethyl-2,3-dihydro-1H-inden-5-yl)pyrazolo[1,5-a]pyrimidin-7-ylamino)-2,3-dihydroxycyclopentyl)methyl rel-sulfamate] | 99% |
| NS(=O)(=O)OC[C@H]1C[C@@H](Nc2ccnc3cc(-c4cccc(Oc5ccccc5)c4)nn23)[C@H](O)[C@@H]1O (relative stereo) [Compound I-051, (rac)-((1R,2R,3S,4R)-2,3-Dihydroxy-4-((2-(3-phenoxyphenyl)pyrazolo[1,5-a]pyrimidin-7-yl)amino)cyclopentyl)methyl rel-sulfamate] | 90% |
| NS(=O)(=O)OC[C@H]1C[C@@H](Nc2ccnc3cc(-c4ccc5oc6ccccc6c5c4)nn23)[C@H](O)[C@@H]1O (relative stereo) [Compound I-019, (rac)-((1R,2R,3S,4R)-4-(2-(dibenzo[b,d]furan-2-yl)pyrazolo[1,5-a]pyrimidin-7-ylamino)-2,3-dihydroxycyclopentyl)methyl rel-sulfamate] | 100% |
| NS(=O)(=O)OC[C@H]1C[C@@H](Nc2ccnc3cc(-c4cnc5ccccc5c4)nn23)[C@H](O)[C@@H]1O (relative stereo) [Compound I-025, (rac)-((1R,2R,3S,4R)-2,3-dihydroxy-4-(2-(quinolin-3-yl)pyrazolo[1,5-a]pyrimidin-7-ylamino)cyclopentyl)methyl rel-sulfamate] | 93% |
| NS(=O)(=O)OC[C@H]1C[C@@H](Nc2ccnc3cc(-c4c(Cl)cc(Cl)c5ccccc45)nn23)[C@H](O)[C@@H]1O [Compound I-117, (s.e.)-((1R,2R,3S,4R)-4-(2-(2,4-dichloronaphthalen-1-yl)pyrazolo[1,5-a]pyrimidin-7-ylamino)-2,3-dihydroxycyclopentyl)methyl sulfamate] | 92% |

Now from value to molecule:

| inhibition at 0.111 µM | Structure (SMILES) |
| --- | --- |
| 84% | NS(=O)(=O)OC[C@H]1C[C@@H](Nc2ccnc3cc(-c4ccc(Cl)cc4Cl)nn23)[C@H](O)[C@@H]1O (relative stereo) [Compound I-013, (rac)-[(1R,2R,3S,4R)-4-{[2-(2,4-dichlorophenyl)pyrazolo[1,5-a]pyrimidin-7-yl]amino}-2,3-dihydroxycyclopentyl]methyl rel-sulfamate] |
| 50% | NS(=O)(=O)OC[C@H]1C[C@@H](Nc2c(Cl)cnc3cc(-c4cccc(SC(F)(F)F)c4)nn23)[C@H](O)[C@@H]1O [Compound I-125, (s.e.)-{(1R,2R,3S,4R)-4-[(6-chloro-2-{3-[(trifluoromethyl)sulfanyl]phenyl}pyrazolo[1,5-a]pyrimidin-7-yl)amino]-2,3-dihydroxycyclopentyl}methyl sulfamate] |
| 99% | NS(=O)(=O)OC[C@H]1C[C@@H](Nc2ccnc3cc(-c4cc5ccccc5o4)nn23)[C@H](O)[C@@H]1O (relative stereo) [Compound I-086, (rac)-((1R,2R,3S,4R)-4-(2-(benzofuran-2-yl)pyrazolo[1,5-a]pyrimidin-7-ylamino)-2,3-dihydroxycyclopentyl)methyl rel-sulfamate] |
